Columns and labels:
[1] = tested on: SCC25 (HPV-negative) cancer cells; assay: Cell proliferation, cell counting kit-8 (CCK8) assay, SCC25; assay type: cell-based, human; details: DMSO 10.45±0.88 folds
Procedure: (§1) FIGS. 3A-3B HBX 19818 inhibited proliferation of CaSki cells, but not SCC25 cells. The growth curves showing the cell proliferation of (FIG. 3A) CaSki (HPV16-positive) and (FIG. 3B) SCC25 (HPV-negative) cancer cells in the presence or absence of HBX 19818. Cell proliferation of CaSki was assessed using cell counting kit 8 (CCK8) assay. Cells were seeded into 96-well plates and incubated with either DMSO (vehicle control) or HBX 19818 at 3 μM or 6 μM for different days as indicated. Optical density (OD) value at 450 nm indicating relative proliferation was measured daily (n=3). Error bars indicate standard error of the mean (SEM).
(§2) We assessed the ability of CaSki (HPV16 positive cells) and SCC25, which are HPV-null cells, to proliferate using a cell counting kit-8 (CCK8) assay. This assay measures the ability of viable cells to metabolize soluble tetrazolium salt (WST-8) to orange formazan, in which the latter can be measured at optical density (OD) of […]. A day prior to drug treatment, CaSki and SCC25 were seeded into each well of 96-well plates at a density of 2000 cells/well in 100 μL of DMEM containing 10% FBS. The cells were treated with either DMSO (vehicle control) or HBX 19818 at 3 μM and 6 μM for 24, 72, and 96 hrs. […] The OD value of the medium at 450 nm was measured using LEDETECT 96 microplate reader (Labexim Products).

[2] = tested on: HPV16 E7 protein in CaSki cells; assay: Cycloheximide chase assay of E7 stability in CaSki cells; assay type: cell-based; details: 3 μM for 24 hrs, then 10 μg/ml cycloheximide, E7 alone 40.32±0.94 mins
Procedure: (§3) FIGS. 2A-2C HBX 19818 treatment destabilized the steady-state level of HPV16 E7. FIG. 2A. Immunoblots showing the protein levels of HPV16 E7, endogenous ubiquitin and USP7. CaSki cells were either transfected with expression plasmids pcDNA 3.1 (left panel) or pcDNA:Flag-USP7, treated with 3 μM of HBX 19818. After 24 hr, the cells were treated with 10 μg/ml cycloheximide at different durations, as indicated. As a control, the cells were also treated with 5 μg/ml MG132 (a proteasome inhibitor) for 2 hrs prior to adding cycloheximide. The cells were harvested and subjected to western blotting using the respective specific antibodies as indicated. Beta-actin (β-actin) was included as a loading control. CHX: cycloheximide; KDa: kilodalton. FIG. 2B. The curves showing the level of HPV16 E7 protein when co-overexpressed with USP7 or treated with HBX 19818 at different time points. The stability of HPV16 E7 was analyzed using the one-phase exponential decay function in GraphPad™ Prism 9. Error bars indicate standard error of the mean (SEM). FIG. 2C. […] Data are expressed as mean±SEM. ns: not significant, P>0.05; *: P<0.05.
(§4) We next wanted to assess whether HBX 19818 can reverse USP7-mediated deubiquitination of E7. […] The expression levels of Flag-USP7, endogenous ubiquitin, and E7 were detected using anti-Flag-, ubiquitin- and HPV16 E7-specific antibodies, respectively (FIG. 2A). […]

[3] = tested on: CaSki (HPV16-positive) cancer cells; assay: Cell proliferation, cell counting kit-8 (CCK8) assay, CaSki; assay type: cell-based, human; details: DMSO 10.38±0.90 folds
Procedure: as §1, §2

[4] = tested on: CaSki (HPV16-positive) cancer cells; assay: Soft agar colony formation assay, CaSki; assay type: cell-based, human; details: 14 days, DMSO 88.17±5.92
Procedure: (§5) FIGS. 4A-4D HBX 19818 inhibited transformation of CaSki cells, but not SCC25 cells. The representative images showing the whole-well view and morphology of colonies formed by (FIG. 4A) CaSki (HPV16-positive) and (FIG. 4C) SCC25 (HPV-negative) cancer cells. Cells were seeded into 0.35% agarose gel containing DMEM with 10% FBS, and grew for 14 days. The agarose gel was stained with crystal violet, and images were taken using a digital camera. The colony morphology was observed using an optical microscope at 100× magnification. The bar chart comparing the number of colonies of (FIG. 4B) CaSki or (FIG. 4D) SCC25 cells with DMSO or HBX 19818 at concentrations indicated (n=3). Data indicated are mean±standard error of the mean (SEM). *: P<0.05.
(§6) We performed a soft agar colony formation assay to assess the ability of CaSki and SCC25 to grow in an anchorage-independent manner, in the presence or absence of HBX 19818 treatment. CaSki and SCC25 cells were seeded into 0.7% soft agar containing 2×DMEM and 20% FBS. The cells were incubated at 37° C. for 14 days. After a 2-week incubation, the agarose gel was stained with crystal violet. Colonies formed were counted and measured. We observed that CaSki cells treated with DMSO formed a dramatically higher number of colonies (88.17±5.92) than those treated with 6 μM of HBX 19818 (62.67±2.03) (FIGS. 4A and 4B). […]

[5] = tested on: ubiquitin in CaSki cells; assay: Endogenous ubiquitin level by western blotting in CaSki cells; assay type: cell-based, human; details: 3 μM, independent of cycloheximide
Procedure: as §3, §4

[6] = tested on: CaSki (HPV-positive) cancer cells; assay: Matrigel invasion assay, CaSki; assay type: cell-based, human; details: 24-hr, DMSO 100%
Procedure: (§7) FIGS. 6A-6D. […] The representative images showing the cell invasion of (FIG. 6A) CaSki (HPV-positive) and (FIG. 6C) SCC25 (HPV-negative) cancer cells in the presence of DMSO (vehicle control) or HBX 19818 at concentrations indicated. Cells were seeded into the invasion chamber with plain medium, followed by treatment with either DMSO or HBX 19818 for 24 hours. Cell invasion was observed and recorded using an optical microscope at 40× magnification. The bar graph comparing the relative cell invasion ability of (FIG. 6B) CaSki and (FIG. 6D) SCC25 with DMSO or HBX 19818 (n=3). Data indicated are mean±standard error of the mean (SEM). **: P<0.01; ***: P<0.001.
(§8) We next examined the ability of CaSki and SCC25 cells to invade through Matrigel, which mimics the basement membrane. Approximately 5×10^4 of CaSki and SCC25 cells were seeded into the inserts containing serum-free DMEM medium with either DMSO or HBX 19818. We included MCF7, a non-invasive breast cancer cell line as a negative control. DMEM supplemented with 20% FBS was added into the bottom chamber to attract cells to migrate from the upper to the lower surface of the inserts. After 24-hr incubation at 37° C., the non-invasive cells on the upper surface were removed using cotton swabs. Cells on the lower surface were fixed and stained using hematoxylin. […]

[7] = tested on: SCC25 (HPV-negative) cancer cells; assay: Wound-healing (migration) assay, SCC25; assay type: cell-based, human; details: SCC25, HBX 19818 versus DMSO, 24 hrs
Procedure: (§9) The representative images showing the cell migration of (FIG. 5A) CaSki (HPV16-positive) and (FIG. 5C) SCC25 (HPV-negative) cancer cells after scratching. Cells were seeded into 12-well plate and scratched when reached 100% confluence, followed by incubation with DMSO (vehicle control) or HBX 19818 at concentrations indicated for 24 hours. Cell migration was observed and recorded using a time-lapse microscope every 6 hours. The bar chart comparing the relative coverage areas of (FIG. 5B) CaSki and (FIG. 5D) SCC25 with DMSO or HBX 19818 (n=3). Data indicated are mean±SEM. *: P<0.05; **: P<0.01.
(§10) We performed a wound-healing assay to ascertain the ability of CaSki and SCC25 cells to migrate under HBX 19818 treatment. Cells were seeded into a 12-well plate and cultured to reach 100% confluency. Cells were then scratched to make artificial wounds on the monolayer of cells and incubated with either DMSO or HBX 19818 at 3 μM or 6 μM. Cells migration was monitored using time-lapse microscopy where images were taken 6-hourly for a duration of 24 hrs.

[8] = tested on: SCC25 (HPV-negative) cancer cells; assay: Matrigel invasion assay, SCC25; assay type: cell-based, human; details: SCC25, HBX 19818 versus DMSO, 24-hr
Procedure: as §7, §8

[9] = tested on: CaSki (HPV16-positive) cancer cells; assay: Wound-healing (migration) assay, CaSki; assay type: cell-based, human; details: 24 hrs, DMSO 98.46%±0.36%
Procedure: as §9, §10

[10] = tested on: HPV16 E7 protein in CaSki cells; assay: HPV16 E7 protein level by western blotting in treated CaSki cells; assay type: cell-based; details: for E7 protein level after inhibitor treatment: 24-hr treatment
Text: FIG. 1A. The representative immunoblots showing the level of HPV16 E7 constitutively expressed in CaSki cells upon treatment with inhibitors specific for USP7 (P5091, FT671, GNE-6776 and HBX 19818) and that targeting pan-USPs (PR-619) at the indicated concentrations. DMSO served as a vehicle control treatment. Cells were then collected and lysed, the levels of USP7 and HPV16 E7 proteins were detected using the respective specific antibodies. Beta-actin (β-actin) was included as a loading control. KDa: kilodalton. FIG. 1B. The bar chart showing the relative protein level of HPV16 E7 normalized by β-actin (n=3). Data are expressed as mean±standard error of the mean (SEM); Right panel showing the images at 100× magnification of the morphology of the CaSki cells treated with P5091, FT671, GNE-6776, HBX 19818 and PR-619 at concentrations indicated. FIG. 1C. The immunoblots showing the levels of USP7 and HPV16 E7 proteins in CaSki and C-33A (an HPV-null cervical cancer cell line) upon downregulation of USP7 using siRNA targeting specifically against human USP7. FIG. 1D. The immunoblots showing the protein level of HPV16 E7 treated with different concentrations of HBX 19818. CaSki cells were treated with different concentrations of HBX 19818 or DMSO as indicated. Total cell lysates were subjected to western blotting using USP7, β-actin and HPV16 E7 specific antibodies. FIG. 1E. The bar chart showing the relative protein level of HPV16 E7 treated with different concentrations of HBX 19818 normalized by β-actin (n=3). Data are expressed as mean±SEM. FIG. 1F. The curve chart showing the level of E7 protein with increasing concentrations of HBX 19818 treatment. The percentage of HPV16 E7 protein level was analyzed using the non-linear regression function in GraphPad™ Prism 9. Error bars show standard errors of the mean (SEM). *: P<0.05; […]***: P<0.001.
Firstly, we screened four USP7-specific inhibitors (P5091, FT671. GNE-6776, and HBX 19818) and 1 pan-USPs inhibitor (PR-619) to characterize their inhibitory effect on E7 expression in HPV-containing cancer cells. We treated CaSki (HPV16-positive) cancer cells with P5091 at 5 μM and 10 μM; FT671, GNE-6776 and PR-619 at 3 μM and 15 μM; as well as HBX 19818 at 3 μM and 6 μM. These concentrations were chosen based on the reported IC50 values. After 24-hr treatment, the cells were collected, and total cell lysates were resolved by SDS-PAGE. The expression levels of USP7 and E7 were detected using respective specific antibodies.

[11] = tested on: SCC25 (HPV-negative) cancer cells; assay: Soft agar colony formation assay, SCC25; assay type: cell-based, human; details: SCC25, HBX 19818 versus DMSO, 14 days
Procedure: as §5, §6

With HBX 19818 the “Cell proliferation ability (relative OD 450 nm)” value ([1]; SCC25, 3 μM) was 10.12±0.94 folds, the “Cell proliferation ability (relative OD 450 nm)” value ([1]; SCC25, 6 μM) was 7.29±1.24 folds and the “Half-life of E7” value [2] was 27.45 ± 0.88 min. The “Cell proliferation ability (relative OD 450 nm)” value ([3]; 3 μM) was 7.82±1.14 folds, the “Cell proliferation ability (relative OD 450 nm)” value ([3]; 6 μM) was 4.29±0.31 folds and the Number of colonies ([4]; 3 μM) was 74.67±7.99. The Number of colonies ([4]; 6 μM) was 62.67±2.03, the Level of ubiquitin [5] was “increased level of ubiquitin” and the Relative invasive ability ([6]; 3 μM) was 30%±2.97%. The Relative invasive ability ([6]; 6 μM) was 13.85%±1.21%, the Cell migration ability [7] was “no differences were observed” and the Invasive ability [8] was “similar”. For the same compound, the “Cell migration ability (relative coverage area)” value ([9]; 3 μM) was 85.58%±4.39%, the “Cell migration ability (relative coverage area)” value ([9]; 6 μM) was 53.24%±8.96% and the “Level of E7 with increasing concentration” value ([10]; 1.5 μM, 3.0 μM, 6.0 μM and 12.0 μM) was “decreased at a dose-dependent manner”. The “E7 protein level after inhibitor treatment” value ([10]; 3 μM and 6 μM, triplicate experiments) was “dramatic reduction of E7 protein level”, the IC50 ([10]; non-linear regression, read-out: Concentration sufficient to halve the level of E7 protein) was 2800 nM and the Number of colonies [11] was “no difference in the number of colonies”.

With `CCc1c(-c2ccc(C(=O)NC)nc2)cnc(N)c1-c1ccc(O)cc1` [GNE-6776] the “E7 protein level after inhibitor treatment” value ([10]; 15 μM) was “decreased the E7 protein level drastically”.

— US20240009182A1, “REPURPOSED COMPOUND AS THERAPEUTIC FOR HPV-ASSOCIATED CANCERS” (The Chinese University of Hong Kong, priority 2022, published 2024)
